Test results as given in article PMC4893612 (Scientific Reports, 2016).
Like-named read-outs stand apart in the source and are kept apart here.

What was measured:
non-proteasomal DUBs = system: non-proteasomal DUBs; design: method as in PMID 25854145; conditions: cited from earlier work
RPMI8226 = test: MTT antiproliferative assay, RPMI8226; type: cell-based; conditions: Homo sapiens, RPMI-8226, 72 hours
Method: Cell viability was monitored by the MTT (3-(4,5-dimethylthiazol-2-yl)-2,5-diphenyltetrazolium bromide) assay. For the MTT assay, cells were suspended at 5 × 10^5 cells/ml, and 100 μl aliquots were dispended into 96-well microtiter plates and exposed to drugs as described using DMSO control. At the end of incubations, 10 μl of a stock solution of 5 mg/ml MTT (3-(4,5-dimethylthiazol-2-yl)-2,5-diphenyltetrazolium bromide), was added into each well, and the plates were incubated 4 hours at 37 °C. Formazan crystals were dissolved with 100 μl of 10% SDS/10 mM HCl solution overnight at 37 °C. Since MTT assays are affected by mitochondrial activity, and since OXPHOS is affected by VLX1570 (unpublished observation), we used the acid phosphatase method[49] to determine cell viability in some experiments. After washing twice with PBS, cells were lysed in 100 μl of 0.1 M sodium acetate, 0,1% Triton X-100, p-nitrophenylphosphate (Pierce Biotechnology Inc, Rockford, IL) and incubated for 90 min at 37 °C. At the end of the incubation, 10 μl NaOH was added to each well and A405 was determined.

USP14 [1] = target: T1, USP14 (Homo sapiens, UniProt P54578); test: SPR binding to recombinant USP14, NTA chip
Source text: A BIACORE T200 was used for characterization of the interaction between compounds and USP14, UCHL5 and 26S proteasome. The standard BIACORE protocols were used for NTA chip (Ni/His-tag immobilization) and CM7 chip for compound interaction studies with slight modification described below. The x6 his-tagged USP14 and UCHL5 proteins were coupled to a Series S NTA BIACORE sensor chip in the BIACORE T200 using the his-tags for adherence of the proteins to the surface and an amine coupling procedure for covalent attachment to the chip surface. NTA chip was cleaned using three 500 μM EDTA injections followed by an injection of 500 μM Ni^2+ and activation of the chip surface with EDC/NHS injection according to BIACORE standard methods. Each chip has four separate areas, which were handled separately during the immobilization procedure. Area 1 was used as blank reference surface, area 2–4 was coupled with investigated recombinant proteins or complexes. Proteins were diluted in running buffer (10 mM HEPES, 150 mM NaCl, 0,005% Tween 20) to typically 10 μg/ml before injection(1 mL) over the prepared surfaces. […] The immobilization procedure was followed by injections of compound concentration series of VLX1570. Concentration series were set up with ×3 and ×2 dilution series ending with the highest concentration 200 μM for the consecutive measurements of changes of refractive index. Compounds were kept in stock concentrations of 10 mM in DMSO and diluted in running buffer down to the test concentration. Rmax and KD were calculated using Langmuir binding isotherms as provided in the Biacore software.

USP5 = target: T2, USP5 (Homo sapiens, UniProt P45974); test: SPR binding to USP5; conditions: data not shown
T2 sequence (P45974 1-858): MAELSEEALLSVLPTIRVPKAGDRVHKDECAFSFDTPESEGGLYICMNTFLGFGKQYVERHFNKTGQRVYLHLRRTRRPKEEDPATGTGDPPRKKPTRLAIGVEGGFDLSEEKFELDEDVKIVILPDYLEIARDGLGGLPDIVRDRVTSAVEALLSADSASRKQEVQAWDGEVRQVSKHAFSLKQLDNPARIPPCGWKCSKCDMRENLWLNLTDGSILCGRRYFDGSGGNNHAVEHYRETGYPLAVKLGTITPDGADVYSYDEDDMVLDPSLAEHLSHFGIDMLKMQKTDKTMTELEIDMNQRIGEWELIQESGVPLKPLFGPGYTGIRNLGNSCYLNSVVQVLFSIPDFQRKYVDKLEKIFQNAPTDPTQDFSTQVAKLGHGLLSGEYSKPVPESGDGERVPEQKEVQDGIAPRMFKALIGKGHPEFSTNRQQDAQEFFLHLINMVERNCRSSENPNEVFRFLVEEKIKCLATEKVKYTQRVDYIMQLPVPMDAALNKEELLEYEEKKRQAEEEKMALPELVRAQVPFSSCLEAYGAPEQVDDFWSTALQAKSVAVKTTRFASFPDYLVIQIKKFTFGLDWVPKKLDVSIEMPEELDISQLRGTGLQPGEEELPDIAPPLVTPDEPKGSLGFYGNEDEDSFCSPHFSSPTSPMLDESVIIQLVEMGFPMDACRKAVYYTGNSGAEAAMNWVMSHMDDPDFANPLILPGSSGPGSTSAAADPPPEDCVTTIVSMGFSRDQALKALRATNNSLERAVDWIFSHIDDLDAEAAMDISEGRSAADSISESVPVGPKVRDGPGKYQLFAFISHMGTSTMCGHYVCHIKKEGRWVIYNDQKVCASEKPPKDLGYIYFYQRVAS

USP14 [2] = target: T1, USP14; test: Cellular thermal shift assay (CETSA) in OPM-2 cells; type: cell-based; design: endogenous in cells; host or cells: OPM-2 multiple myeloma cells; conditions: 1 μM, 1 hour
Method: For CETSA, the same amount of cells as one sample was treated with required condition and collected as described. Each sample was suspended in PBS supplemented with protease inhibitors after they were washed in PBS. And then these samples were heated at 51, 53, or 55 °C for 3 min. Immediately after heating, tubes were removed and incubated at room temperature for 3 min, and then snap-frozen in liquid nitrogen. Samples were freeze-thawed twice and centrifuged at 20,000 g for 20 min at +4 °C and supernatants were analysed by Western-blotting.

T1 sequence (P54578 whole entry): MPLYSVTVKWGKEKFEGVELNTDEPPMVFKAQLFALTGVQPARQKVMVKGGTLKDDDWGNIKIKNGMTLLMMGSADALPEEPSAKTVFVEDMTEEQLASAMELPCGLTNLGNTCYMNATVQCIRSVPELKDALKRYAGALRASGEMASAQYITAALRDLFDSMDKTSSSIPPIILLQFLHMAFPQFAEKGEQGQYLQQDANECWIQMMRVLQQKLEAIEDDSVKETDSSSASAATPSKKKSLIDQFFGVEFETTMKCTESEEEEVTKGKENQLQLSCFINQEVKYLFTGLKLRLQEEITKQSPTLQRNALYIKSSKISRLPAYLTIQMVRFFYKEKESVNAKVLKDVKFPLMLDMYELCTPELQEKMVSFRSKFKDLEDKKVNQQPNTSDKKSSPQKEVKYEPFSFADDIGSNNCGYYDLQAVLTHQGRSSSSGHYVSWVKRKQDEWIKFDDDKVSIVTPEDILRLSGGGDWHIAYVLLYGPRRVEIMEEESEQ

Which “inhibition of a panel of non-proteasomal DUBs” value (non-proteasomal DUBs) does the source give for `C=CC(=O)N1CC/C(=C\c2ccc(F)c([N+](=O)[O-])c2)C(=O)/C(=C/c2ccc(F)c([N+](=O)[O-])c2)C1` [VLX1570] here?
Its value is “not inhibiting”.

And the IC50 (RPMI8226)?
The IC50 was 0.074 ± 0.002 µM.

And the Kd (USP14 [1]; NTA chip, protein from Karolinska Institute Protein Science Facility, read-out: USP14(K) KD)?
Its Kd is 18 µM.

What about the Kd (USP14 [1]; NTA chip, protein from ProSpec, read-out: USP14(P) KD) of the same molecule?
Its Kd is 8.1 µM.

What about the Kd (USP14 [1]; NTA chip, protein from Ubiquigent, read-out: USP14(U) KD) of the same molecule?
Its Kd is 1.5 µM.

What about the Kd (USP14 [1]; two different sources of recombinant protein, Ni2+-histidine immobilisation, read-out: dissociation constant (KD) for binding to recombinant USP14) of the same molecule?
The Kd was 1.5 to 18 µM.

What about the “saturable binding to USP5” value (USP5) of the same molecule?
Its value is “No saturable binding”.

And the “thermostabilization of USP14” value (USP14 [2])?
Its value is “thermostabilized”.

What about the “thermostabilization of USP14” value (USP14 [2]; 53°–55 °C) of the same molecule?
The value was 2.5 fold control.
